Reference: ChEMBL document CHEMBL1201862, “PubChem BioAssay data set” (2004)
The source made the active and inactive calls.

Assays:
[1] = Mcl1-dependent cancer cell viability – HMC-1-8 cells, luminescence, dry powder, selectivity assay for A1 inhibitor project, dose response (AID 504415); format: functional, cell-based; details: Homo sapiens
INS1 [2] = assay: INS-1E mitochondrial potential rescue under cytokines – cell-based, JC-1 fluorescence ratio, dry powder, dose response (AID 488931); format: functional; details: Rattus norvegicus
INS1 [3] = assay: beta-cell survival under cytokine stress – INS-1E, ATP luminescence, dry powder, dose response (AID 488844); format: functional, cell-based; details: Rattus norvegicus
INS1 [4] = assay: suppression of NO production in INS-1E cells – cell-based, Griess absorbance, dry powder, set 2, dose response (AID 488868); format: functional; details: Rattus norvegicus
[5] = target: Megakaryocyte-associated tyrosine-protein kinase (Homo sapiens, UniProt P42679); format: functional;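 further: affinity measured as one member of a kinase panel (Navigating the Kinome) against MATK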
Sequence of Megakaryocyte-associated tyrosine-protein kinase (P42679 whole entry): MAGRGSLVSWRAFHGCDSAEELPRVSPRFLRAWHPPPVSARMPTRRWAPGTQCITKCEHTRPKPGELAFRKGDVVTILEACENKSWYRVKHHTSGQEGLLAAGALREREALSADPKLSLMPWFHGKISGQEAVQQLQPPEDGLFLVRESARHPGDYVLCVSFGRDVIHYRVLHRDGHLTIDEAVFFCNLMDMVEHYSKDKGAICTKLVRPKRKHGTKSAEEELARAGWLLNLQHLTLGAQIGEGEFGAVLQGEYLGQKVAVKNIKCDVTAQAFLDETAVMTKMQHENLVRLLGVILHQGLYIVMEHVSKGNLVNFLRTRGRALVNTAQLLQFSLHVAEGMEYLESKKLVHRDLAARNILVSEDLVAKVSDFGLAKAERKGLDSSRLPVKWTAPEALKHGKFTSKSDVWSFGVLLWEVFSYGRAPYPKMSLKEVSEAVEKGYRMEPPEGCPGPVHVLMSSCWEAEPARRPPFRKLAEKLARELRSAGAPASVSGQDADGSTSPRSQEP

[6] = target: Dual specificity tyrosine-phosphorylation-regulated kinase 1A (Homo sapiens, UniProt Q13627); format: functional;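 further: measured against DYRK1A as one member of a broad kinome profiling panel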
Aurora kinase B = Aurora kinase B (Homo sapiens, UniProt Q96GD4); format: functional
Sequence of Aurora kinase B (Q96GD4 whole entry): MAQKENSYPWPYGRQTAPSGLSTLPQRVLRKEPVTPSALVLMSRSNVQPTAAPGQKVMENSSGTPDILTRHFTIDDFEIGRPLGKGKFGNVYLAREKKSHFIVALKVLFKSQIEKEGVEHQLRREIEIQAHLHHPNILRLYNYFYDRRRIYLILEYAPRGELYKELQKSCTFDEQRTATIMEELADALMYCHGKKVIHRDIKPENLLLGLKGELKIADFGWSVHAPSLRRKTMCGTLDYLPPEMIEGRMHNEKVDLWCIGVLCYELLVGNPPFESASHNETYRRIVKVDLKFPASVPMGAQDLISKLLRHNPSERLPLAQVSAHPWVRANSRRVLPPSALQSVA

[7] = target: MAP kinase-activated protein kinase 3 (Homo sapiens, UniProt Q16644); format: functional;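 further: value comes from a kinome-wide profiling panel in which MAPKAPK3 is one of the panel members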
Sequence of MAP kinase-activated protein kinase 3 (Q16644 whole entry): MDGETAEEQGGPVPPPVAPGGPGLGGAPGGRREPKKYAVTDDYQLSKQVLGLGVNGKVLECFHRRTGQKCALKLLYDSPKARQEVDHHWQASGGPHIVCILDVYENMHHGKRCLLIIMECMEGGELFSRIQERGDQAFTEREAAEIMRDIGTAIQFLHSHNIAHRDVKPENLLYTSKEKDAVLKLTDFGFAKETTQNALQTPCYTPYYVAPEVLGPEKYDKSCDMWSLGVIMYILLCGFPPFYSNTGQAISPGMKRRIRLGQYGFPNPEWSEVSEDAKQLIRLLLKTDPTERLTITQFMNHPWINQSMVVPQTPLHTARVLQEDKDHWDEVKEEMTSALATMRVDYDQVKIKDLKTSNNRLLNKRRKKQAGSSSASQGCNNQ

[8] = target: Ribosomal protein S6 kinase beta-1 (Homo sapiens, UniProt P23443); format: functional;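 further: measured as one member of a kinome-wide profiling panel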
Sequence of Ribosomal protein S6 kinase beta-1 (P23443 whole entry): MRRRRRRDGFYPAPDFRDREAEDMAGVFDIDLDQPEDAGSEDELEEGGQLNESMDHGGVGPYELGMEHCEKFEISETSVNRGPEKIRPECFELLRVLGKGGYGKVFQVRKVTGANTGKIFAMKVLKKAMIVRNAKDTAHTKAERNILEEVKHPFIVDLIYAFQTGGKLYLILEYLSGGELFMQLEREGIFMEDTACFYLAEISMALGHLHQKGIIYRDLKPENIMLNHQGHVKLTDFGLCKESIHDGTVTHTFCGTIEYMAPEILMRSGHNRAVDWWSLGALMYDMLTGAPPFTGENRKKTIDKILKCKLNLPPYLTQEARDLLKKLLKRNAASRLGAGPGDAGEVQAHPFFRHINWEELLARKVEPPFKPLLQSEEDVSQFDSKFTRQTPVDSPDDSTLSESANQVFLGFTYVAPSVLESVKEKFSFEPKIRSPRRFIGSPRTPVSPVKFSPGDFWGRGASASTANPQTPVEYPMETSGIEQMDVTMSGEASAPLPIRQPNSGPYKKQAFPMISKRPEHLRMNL

[9] = target: Serine/threonine-protein kinase pim-3 (Homo sapiens, UniProt Q86V86); format: functional;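 further: value obtained as one member of a broad kinase panel profiling effort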

CCSc1c([N+](=O)[O-])c(=O)oc2ccccc12
active: AC50 [1] 23.4 µM

C[C@@H]1CN([C@@H](C)CO)C(=O)c2cccc(NC(=O)Nc3ccc(F)cc3)c2O[C@H]1CN(C)S(=O)(=O)c1ccc(Cl)cc1
active: AC50 (INS1 [2]) 95.8 µM | AC50 (INS1 [3]) 7.24 µM | AC50 (INS1 [4]) 27.4 µM

Cc1c(F)c(N2CCC(N)C2)nc2[nH]cc(C(=O)O)c(=O)c12 (stereo not given)
active: Ki [5] 2 µM | Ki [6] 3.16 µM | Ki (Aurora kinase B) 6.31 µM | Ki [7] 7.94 µM | Ki [8] 2 µM | Ki [9] 5.01 µM
